Results: patent US20170234881A1, “METHODS OF DIAGNOSING AND TREATING CANCER” (INSERM ( INSTITUT NATIONAL DE LA SANTÉ ET DE LA RECHERCHE …, priority 2014, published 2017)

Key:
Type in all cases: cell-based, human
MCF7 cells = assay: Cell proliferation assay (BrDU incorporation), MCF7; conditions: MCF7 cells treated 24 h, concentration-dependent, level reached
Description: FIG. 2. OCDO is a tumor promoter in vitro and in vivo and its inhibition contributes to the anti-tumor effects of Tam and DDA. (A, B) Histograms representing the effect of OCDO or 17β-estrogen (E2) on MCF7 (A) and TS/A (B) cell proliferation after 24 h treatment using a colorimetric immunoassay measuring BrDU incorporation in DNA (C, D) Histogram representing the effect of OCDO on MCF7 (C) and TS/A (D) cell invasion. Data are the mean of three separate experiments (±[…]) Mice were implanted s.c. with MCF7 (E) or TS/A (F) cells and animals (8 per group) were treated s.c. every day starting on the day of implantation with either the solvent vehicle or OCDO (16 μg/kg for MCF7 or 50 μg/kg for TS/A). Animals were monitored for tumour growth twice a week. The data are representative of three independent experiments. The mean tumor volume±s.e.m is shown, *P<0.05, **P<0.01, ***P<0.001 (analysis of variance (ANOVA), Dunnett's post test). […] (I, J, K). Murine […], or human MDA-MB231 (J) or MDA-MB468 (K) cells implanted s.c. into mice (8 per group) and animals were treated s.c. with either the solvent vehicle or OCDO (16 μg/kg for MDA-MB-231 and MDA-MB-468 or 50 μg/kg for E0771). […] At the end of this time, cells were incubated with BrDU for an additional 8 h and then evaluated for proliferation using the ELISA kit, Roche Diagnostic, as indicated by the manufacturer.

[1] = system: HSD1-transfected MCF7 cells; assay: Proliferation of 11βHSD1-transfected MCF7 cells (BrDU); conditions: 5 μM OCDO for 24 h
Description: FIG. 5. Ectopic expression of 11βHSD1 in MCF7 inhibits cell proliferation and OCDO reverses this effect. MCF7 cells were transfected by electroporation with a plasmid coding either the enzymes 11βHSD1 (HSD1) or the control empty vector (mock) and analyzed as followed: (A) the expression of 11βHSD1 was confirmed by immunoblotting using specific antibody against 11βHSD1 and normalized with actin; (B) The production of CT was determined by incubating the mock or the HSD1-transfected cells with ^14C-OCDO for 72 h at 37° C. The radioactive metabolites of interest were analyzed as in the legend of FIG. 4B. (C) The proliferation of the mock- or the HSD1-transfected MCF7 cells treated or not with 5 μM OCDO for 24 h were analyzed as in FIG. 2A. The results in B and C are the mean (±s.e.m) of three to five experiments, **P<0.01, ***P<0.001 (Student's t-test), ns: non specific.
(§1) MCF7 or HEK293T cells (5×10^6 cells) were transfected with 5 μg of the indicated plasmid using the NEON Transfection System and according to the manufacturer's recommendations. […] Several clones were analyzed by immunoblot analysis and real time RT-qPCR for the knock down of the expression of the protein of interest. […]

shHSD2 MCF7 cells = assay: Proliferation of shHSD2 MCF7 cells (BrDU); conditions: sh11HSD2 MCF7 cells, 24 h; OCDO 5 μM; cortisone increasing concentrations
Description: FIG. 7. Knock-down of 11βHSD2 decreases cell proliferation, invasion and survival in MCF7 cells as well as tumor growth and OCDO reverses these effects. shC or shHSD2 MCF7 cells were analyzed as followed: (A) The proliferation of sh-C or shHSD2 cells treated or not with OCDO 5 μM 24 h was measured using quantification of DNA BrDU incorporation as described in FIG. 2A. (B) The proliferation of sh-C or shHSD2 cells treated or not with increasing concentration of cortisone for 24 h was measured as in (A). (C) The invasiveness of sh-C or shHSD2 cells treated or not with OCDO 5 μM for 72 h was assayed using matrigel-coated filters. (D) the formation of colony by sh-C or shHSD2 cells treated or not with OCDO 1 μM was quantified as described in FIG. 6F. […] Animals were monitored for tumor growth twice a week. […] (F) Mean (±s.e.m) of Ki67 positive cell number determined from IHC staining of shC or shHSD2 MCF7 tumor sections from (E), n=8, *P<0.05 (Student's t-test) using HistoQuant, Pannoramic Viewer (3DHistech).
as §1

SMILES: CC(C)CCC[C@@H](C)[C@H]1CC[C@H]2[C@@H]3CC(=O)[C@@]4(O)C[C@@H](O)CC[C@]4(C)[C@H]3CC[C@]12C [OCDO, 6-oxo-cholestan-3β,5α-diol]
- growth rate (cell proliferation) relative to the control (MCF7 cells): 1.3 fold
- effect on the decrease of cell proliferation induced by 11βHSD1 expression [1]: reversed this effect
- effect on the inhibition of cell proliferation induced by 11βHSD2 knock-down (shHSD2 MCF7 cells): able to reverse the inhibition of cell proliferation
